Assay results: patent US3973021A, “2-[2-(5-Nitro-2-furyl)vinyl]-4-(phydroxyanilino)quinazoline as a bactericide” (Diamond Shamrock Corporation, priority 1975, dated 1976)

Assays:
Format in all cases: in vivo, broiler cross chicks
[1] = Example VII: 4 week chick feeding test, weight gain and feed efficiency; conditions: analysis of variance; over Basal Ration + Bacitracin
Text: One hundred twenty day-old broiler cross chicks were weight equalized into 15 groups of 8 chicks each and placed in battery brooders. The 40 chick treatment groups (5 replicates) were fed the one of the three rations described below for a four week period. weekly measurements of body weights and feed consumption were made by replicate, and these measurements used to calculate weight gain and feed efficiency.
The commercial type broiler starter basal ration which was used in this study was designated as the Basal Ration, and had the following composition:
The preceding basal ration was mixed with bacitracin at a level of 4 g/T as the only growth stimulant to simulate commercial practice. This mixture was designated as the Basal Ration + Bacitracin (4 g/T) and constituted the negative control in this study.
A second ration was prepared by fortifying the Basal Ration + bacitracin described above with the Product from Example I above at a level of 200 g/T, and was designated as Basal Ration + Bacitracin + Product of Example I (200 g/T). A third ration was prepared by fortifying the Basal Ration + bacitracin described above with chlortetracycline (CTC) at a level of 200 g/T, and was designated as Basal Ration + Bacitracin + Chlortetracycline (200 g/T).
The term "growth promotion" is used herein to describe the beneficial effect of a compound in eliciting a more rapid of weight gain when compared to the weight gain of control animals not fed the compound. "Feed efficiency" is a term regularly used in animal husbandry and is a measure of the pounds of feed required to produce a pound of gain in the weight of the animal. A lower mathmatical value for feed efficiency reflects improved performance.

[2] = Example XI: 4 week chick feeding test, five replicates; conditions: Table V
Text: (§1) This example compares growth promotion activity of the product of Example I with other growth promotants at a concentration of 25 g/T in the Basal Ration described in Example VII. The other growth promotants include the product described in Example I of U.S. Pat. No. 3,542,784 -- Burch and quinoxaline-1,4-dioxide. Day old broiler cross chicks were weight equalized into groups of 8 chicks each, and four replicates of 8 chicks each were fed the experimental rations over a 4 week period.
The growth promotion tests described in Example X were repeated with the exception that fives replicates of 8 chicks each were fed the formulations described in Table V for four weeks.

[3] = Example XII: 4 week chick feeding test, first set (Table VI); conditions: Table VI
Text: as §1
The growth promotion tests described in Example X were repeated with the additional testing the products of Examples II and III.

[4] = Example X: 4 week chick feeding test, 25 g/T
Text: as §1

[5] = Example XII: 4 week chick feeding test, repeat with five replicates (Table VII)

Structure (SMILES)	statistical significance of improved feed efficiencies [1]	statistical significance of improved weight gains [1]	feed efficiency (in words) [2]	growth rate (in words) [2]	growth rate / feed efficiency response (in words) [3]	Average 4 Week Performance: Feed Efficiency ([4]; 25g/T)	Average 4 Week Performance: Gain ([4]; 25g/T) [g]	Improved Response Over Basal Ration: Feed Efficiency ([4]; 25g/T)	Improved Response Over Basal Ration: Gain ([4]; 25g/T)	growth rate and feed efficiency response (in words) ([4]; 25 g/T, Table IV)	Average 4 Week Performance: Feed Efficiency ([5]; 25g/T)	Average 4 Week Performance: Gain ([5]; 25g/T) [g]	Improved Response Over Basal Ration: Feed Efficiency ([5]; 25g/T)	Improved Response Over Basal Ration: Gain ([5]; 25g/T) [%]	growth rate / feed efficiency response (in words) ([5]; Table VII)
CN(C)[C@@H]1C(O)=C(C(N)=O)C(=O)[C@@]2(O)C(O)=C3C(=O)c4c(O)ccc(Cl)c4[C@@](C)(O)[C@H]3C[C@@H]12 [Chlortetracycline, reference compound]	significant at the 99.9% level of probability	significant at the 99.5% level of probability	moderate improvements in feed efficiencies	slight improvements in growth rates											
O=[N+]([O-])c1ccc(-c2nc(Nc3ccc(O)cc3)c3ccccc3n2)o1 [Example III of U.S. 3,542,784 - Burch, 2-(5-nitro-2-furyl)-4-(p-hydroxyaniline)quinazoline, reference compound]					essentially no effect on growth rate or feed efficiency	1.525	809.5	+1.7%	+5.8%	appeared to give a growth response in this test but with a slight, it any, effect on feed efficiency	1.737	668.1	+2.7%	-2.1	essentially no effect on growth rate or feed efficiency
